Experimental data reported in patent publication US20220324835A1 (Nurix Therapeutics, Inc., priority 2018, published 2022).

Experiments:
Assay type in all cases: cell-based
[1] = tested on: primary human total T-cells; assay: T-cell activation assessed by CD69 expression
Source text: (§1) Peripheral blood mononuclear cells (PBMC) were obtained either: 1) by using Ficoll-Paque™ (GE Healthcare) for separation of peripheral blood hematopoietic cells from buffy coats of healthy human donors; or 2) directly from FeukoPak donations. Total human primary T-cells were isolated from the PMBCs utilizing negative selection with commercial kits following the manufacturer's protocol (Miltenyi Catalog #130-096-535 (i.e., cocktail of antibodies against surface markers CD14, CD15, CD16, CD19, CD34, CD36, CD56, CD123 and CD235a are incubated with the PBMCs before passing the samples by magnetic beads for removal of cells expressing those surface markers) or StemCells Catalog #17951) to yield >95% CD3+ cells as assessed by flow cytometry. For measurement of cell proliferation, cells were labeled with Cell Trace Violet (Invitrogen) following manufacturer's protocol prior to activation by stimulation with anti-CD3 antibody alone or in combination with anti-CD28 antibody. The Cbl-b inhibitor was added to 1×10^5 cells per well at multiple concentrations (e.g., 10 μM, 1.11 μM, or 0.123 μM) with a final DMSO concentration of <0.1%. The plate was incubated for one hour at 37° C. in 5% CO2. Following incubation with the Cbl-b inhibitor, primary human total T-cells were stimulated with either plate bound anti-CD3 antibody (OKT3) alone or plate bound anti-CD3 antibody (OKT3) with soluble anti-CD28 antibody (28.2) (Life Technologies). To prepare plates with plate bound anti-CD3 antibody (OKT3), 96-well round bottom tissue culture plates were coated with 100 μl of anti-CD3 antibody (OKT3) at 10 μg/mL for 4 hours at 37° C. 5% CO2 in phosphate buffered saline (PBS). The plates were washed with PBS prior to adding the cells with or without soluble anti-CD28 antibody (28.2) to each well at a final concentration of 5 μg/mL. Cells were stimulated for 48 hours prior to harvesting the cell free supernatant and staining the cell population for surface marker assessment by flow cytometry. Supernatants were analyzed for cytokine secretion (e.g., GM-CSF, IFNγ and TNFα) by ELISA (R&D Systems, Peprotech or Life Technologies) or Luminex multiplex kits (Procarta Life Technologies) following manufacturer's protocol. Cells were stained with anti-CD69 (BD Biosciences) to assess levels of surface markers of activation. Proliferation was measured by flow cytometry and data was analyzed with FlowJo v7.6.5 or v10. Readouts were reported as fold change over baseline. In some embodiments, baseline was the measurement obtained from total human T-cells stimulated with anti-CD3 antibody alone, wherein the cells were not incubated with a Cbl-b inhibitor. In some embodiments, baseline was the measurement obtained from total human T-cells stimulated with anti-CD3 antibody and anti-CD28 antibody, where the cells were not incubated with a Cbl-b inhibitor.
(§2) Cbl-b inhibitors were tested to determine their ability to induce or enhance secretion of cytokines from T-cells (e.g., GM-CSF, IFNγ and TNFα) and/or surface expression of cell surface markers on T-cells (e.g., CD69) that is indicative of T-cell activation. Cbl-b inhibitors were also tested to determine their ability to induce or enhance T-cell proliferation. Cbl-b inhibitors were tested for their effects on T-cell activation in the presence of costimulation and where conditions were suboptimal for priming.
(§3) Readouts for T-cell activation were reported as fold change over baseline. Baseline for this study was the measurement obtained from total human T-cells stimulated with anti-CD3 antibody alone or anti-CD3 antibody in combination with soluble anti-CD28 antibody, where the cells were not incubated with a Cbl-b inhibitor. For T-cells stimulated with anti-CD3/anti-CD28 or with anti-CD3 alone changes greater than 1,2-fold over baseline for % positive CD69 staining and greater than 2-fold over baseline for % total proliferating cells were considered a significant and positive response (Table 4a). […]

[2] = tested on: primary human total T-cells; assay: T-cell activation assessed by cell proliferation (Cell Trace Violet)
Source text: as §1, §2, §3

[3] = tested on: primary human total T-cells; assay: T-cell activation assessed by cytokine secretion (GM-CSF, IFNγ, TNFα)
Source text: as §1, §2, §3

[4] = CD3/CD28 stimulation, CD4 T-cells, read-out: % CD69+ (CD4)
[5] = CD3/CD28 stimulation, CD8 T-cells, read-out: % CD69+ (CD8)
[6] = CD3 alone stimulation, CD4 T-cells, read-out: % CD69+ (CD4)
[7] = CD3 alone stimulation, CD8 T-cells, read-out: % CD69+ (CD8)
[8] = CD3/CD28 stimulation, CD4 T-cells, read-out: % CP (cell proliferation) (CD4)
[9] = CD3/CD28 stimulation, CD8 T-cells, read-out: % CP (cell proliferation) (CD8)
[10] = CD3 alone stimulation, CD8 T-cells, read-out: % CP (cell proliferation) (CD8)
[11] = CD3/CD28 stimulation, read-out: GM-CSF secretion
[12] = CD3/CD28 stimulation, read-out: IFNγ secretion
[13] = CD3/CD28 stimulation, read-out: TNFα secretion
[14] = CD3 alone stimulation, read-out: GM-CSF secretion
[15] = CD3 alone stimulation, read-out: IFNγ secretion
[16] = CD3 alone stimulation, read-out: TNFα secretion

SMILES	fold induction at 1.11 µM [1, 4]	fold induction at 10 µM [1, 4]	fold induction at 1.11 µM [1, 5]	fold induction at 10 µM [1, 5]	fold induction at 1.11 µM [1, 6]	fold induction at 10 µM [1, 6]	fold induction at 1.11 µM [1, 7]	fold induction at 10 µM [1, 7]	fold induction at 1.11 µM [2, 8]	fold induction at 10 µM [2, 8]	fold induction at 1.11 µM [2, 9]	fold induction at 10 µM [2, 9]	fold induction at 1.11 µM [2, 10]	fold induction at 10 µM [2, 10]	fold induction at 1.11 µM [3, 11]	fold induction at 1.11 µM [3, 12]	fold induction at 1.11 µM [3, 13]	fold induction at 10 µM [3, 11]	fold induction at 10 µM [3, 12]	fold induction at 10 µM [3, 13]	further results
Cn1cnnc1CC1(c2cccc(NC(=O)c3nc4c(C(F)(F)F)cccc4[nH]3)c2)COC1 [Compound 335, N-(3-{3-[(4-methyl-1,2,4-triazol-3-yl)methyl]oxetan-3-yl}phenyl)-4-(trifluoromethyl)-1H-1,3-benzodiazole-2-carboxamide]	1.4 to 1.6	> 1.6	1.2 to 1.4	1.2 to 1.4	> 1.6	> 1.6	1.2 to 1.4	1.4 to 1.6	> 4	> 4	3.01 to 4	3.01 to 4	> 4	> 4	1.51 to 2	> 4	1.51 to 2	> 4	2.01 to 3	2.01 to 4	fold induction at 1.11 µM [3, 14]: ≤ 1.5; fold induction at 1.11 µM [3, 15]: < 2; fold induction at 1.11 µM [3, 16]: 1.51 to 2; fold induction at 10 µM [3, 14]: 2.01 to 4; fold induction at 10 µM [3, 15]: 2.01 to 3; fold induction at 10 µM [3, 16]: 1.51 to 2
C[C@H](c1cc2c(c(C(F)(F)F)c1)CN(c1cccc(C3(Cc4nncn4C)COC3)c1)C2=O)N1CC[C@H](F)C1 [Compound 413, 6-((R)-1-((S)-3-fluoropyrrolidin-1-yl)ethyl)-2-(3-(3-((4-methyl-4H-1,2,4-triazol-3-yl)methyl)oxetan-3-yl)phenyl)-4-(trifluoromethyl)isoindolin-1-one]	1.4 to 1.6	> 1.6	1.2 to 1.4	1.2 to 1.4	1.4 to 1.6	> 1.6	1.2 to 1.4	1.4 to 1.6	> 4	> 4	3.01 to 4	> 4	3.01 to 4	> 4	2.01 to 4	< 2	2.01 to 4	> 4	3.01 to 4	2.01 to 4	fold induction at 1.11 µM [3, 14]: 1.51 to 2; fold induction at 1.11 µM [3, 15]: 2.01 to 3; fold induction at 1.11 µM [3, 16]: 1.51 to 2; fold induction at 10 µM [3, 14]: 2.01 to 4; fold induction at 10 µM [3, 15]: > 4; fold induction at 10 µM [3, 16]: 1.51 to 2
